The target of one test is T1, CDK9/CycT1 (Homo sapiens, UniProt P50750).
T1 construct: Recombinant full-length His-tagged human CDK9 and CycT1; purchased Life Technologies PV4131; host or cells: insect cells
In words: CDK9/CycT1 high ATP kinase assay (TR-FRET, 2 mM ATP). Particulars: 2 mM ATP (high ATP); median; read-out: CDK9/CyclinT1, 2 mM ATP (high ATP), IC50 (median). It is filed as biochemical. An outline of the steps: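 Full-length His-tagged human CDK9/CycT1 (insect cell, ~0.5 μg/mL) preincubated 15 min at 22 °C with compound in Tris pH 8.0, MgCl2, DTT buffer before reaction with biotinylated peptide substrate at high ATP (2 mM).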
On the technique in general: Time-resolved FRET reads energy transfer from a long-lived donor to a nearby acceptor.

In test [1] the target is T2, CYCLIN K (nuclear staining in CAL-120 cells) (Homo sapiens, UniProt O75909).
T2 construct: endogenous in cells; host or cells: CAL-120 human breast cancer cells (DSMZ ACC 459)
T2 sequence (O75909 whole entry): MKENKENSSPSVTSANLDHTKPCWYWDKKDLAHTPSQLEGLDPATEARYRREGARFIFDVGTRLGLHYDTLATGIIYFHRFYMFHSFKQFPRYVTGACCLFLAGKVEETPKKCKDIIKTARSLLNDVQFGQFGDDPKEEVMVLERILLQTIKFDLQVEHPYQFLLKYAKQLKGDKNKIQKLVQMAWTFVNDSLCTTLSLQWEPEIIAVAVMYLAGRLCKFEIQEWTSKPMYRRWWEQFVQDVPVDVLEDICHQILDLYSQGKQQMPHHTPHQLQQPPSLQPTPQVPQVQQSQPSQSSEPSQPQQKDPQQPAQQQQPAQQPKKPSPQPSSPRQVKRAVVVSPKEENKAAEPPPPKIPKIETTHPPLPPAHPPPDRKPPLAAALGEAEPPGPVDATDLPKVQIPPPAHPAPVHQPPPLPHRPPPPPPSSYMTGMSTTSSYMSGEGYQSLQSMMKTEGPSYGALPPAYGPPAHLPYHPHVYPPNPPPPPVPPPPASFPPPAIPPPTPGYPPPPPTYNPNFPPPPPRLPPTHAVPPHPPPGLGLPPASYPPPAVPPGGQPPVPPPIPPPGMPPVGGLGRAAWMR
T2 sequence (Q9NYV4 whole entry partner): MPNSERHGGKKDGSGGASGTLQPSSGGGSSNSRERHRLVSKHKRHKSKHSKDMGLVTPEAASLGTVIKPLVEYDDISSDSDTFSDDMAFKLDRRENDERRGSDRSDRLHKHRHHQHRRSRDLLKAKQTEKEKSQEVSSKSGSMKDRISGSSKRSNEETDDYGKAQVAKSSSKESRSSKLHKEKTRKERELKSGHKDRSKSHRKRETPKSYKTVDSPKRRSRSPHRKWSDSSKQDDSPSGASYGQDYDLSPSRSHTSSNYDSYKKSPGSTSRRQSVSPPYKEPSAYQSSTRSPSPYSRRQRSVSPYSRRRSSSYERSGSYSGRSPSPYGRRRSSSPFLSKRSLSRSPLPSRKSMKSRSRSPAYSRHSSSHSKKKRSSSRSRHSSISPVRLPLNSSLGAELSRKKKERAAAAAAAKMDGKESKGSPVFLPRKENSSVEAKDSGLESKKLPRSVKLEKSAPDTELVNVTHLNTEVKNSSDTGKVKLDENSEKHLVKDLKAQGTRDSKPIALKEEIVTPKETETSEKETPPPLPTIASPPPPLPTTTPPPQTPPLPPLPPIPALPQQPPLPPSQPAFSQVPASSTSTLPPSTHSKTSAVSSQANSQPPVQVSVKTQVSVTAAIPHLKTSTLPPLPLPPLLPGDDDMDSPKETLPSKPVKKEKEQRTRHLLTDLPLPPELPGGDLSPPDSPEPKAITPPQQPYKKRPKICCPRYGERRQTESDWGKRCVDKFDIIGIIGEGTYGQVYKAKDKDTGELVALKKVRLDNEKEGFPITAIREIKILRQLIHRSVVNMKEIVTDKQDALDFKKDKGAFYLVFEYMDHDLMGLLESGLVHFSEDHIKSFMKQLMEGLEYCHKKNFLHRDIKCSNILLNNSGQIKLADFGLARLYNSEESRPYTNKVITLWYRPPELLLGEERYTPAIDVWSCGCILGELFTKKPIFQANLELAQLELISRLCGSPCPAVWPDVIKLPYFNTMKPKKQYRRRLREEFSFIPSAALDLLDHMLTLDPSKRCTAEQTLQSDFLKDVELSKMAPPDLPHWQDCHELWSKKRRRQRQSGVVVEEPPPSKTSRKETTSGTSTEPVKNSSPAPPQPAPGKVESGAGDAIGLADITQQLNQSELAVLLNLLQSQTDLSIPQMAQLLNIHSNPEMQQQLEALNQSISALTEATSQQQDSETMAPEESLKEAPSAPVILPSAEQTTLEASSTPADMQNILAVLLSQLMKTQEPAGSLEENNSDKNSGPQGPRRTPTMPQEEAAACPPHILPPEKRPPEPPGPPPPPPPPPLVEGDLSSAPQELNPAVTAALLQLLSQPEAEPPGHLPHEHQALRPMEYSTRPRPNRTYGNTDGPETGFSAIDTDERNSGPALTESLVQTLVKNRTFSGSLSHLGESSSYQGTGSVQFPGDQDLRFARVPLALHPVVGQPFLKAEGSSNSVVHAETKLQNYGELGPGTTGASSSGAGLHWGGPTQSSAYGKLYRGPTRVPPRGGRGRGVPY
In words: CYCLIN K nuclear protein level: immunofluorescence high content analysis (CAL-120). The test is classed as cell-based. Conditions: 24 h, 50% reduction of nuclear CCNK staining intensity, median, read-out: CYCLIN K degradation IF, DC50-[mol/l] (median). An outline of the steps: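 CAL-120 breast cancer cells treated in dose-response for 24 h at 37 °C, PFA-fixed and immunostained for cyclin K with Hoechst counterstain. Confocal imaging quantified nuclear intensity; DC50 is the concentration giving 50% reduction of nuclear CCNK staining, normalized to DMSO and control.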

T1 sequence (P50750 whole entry): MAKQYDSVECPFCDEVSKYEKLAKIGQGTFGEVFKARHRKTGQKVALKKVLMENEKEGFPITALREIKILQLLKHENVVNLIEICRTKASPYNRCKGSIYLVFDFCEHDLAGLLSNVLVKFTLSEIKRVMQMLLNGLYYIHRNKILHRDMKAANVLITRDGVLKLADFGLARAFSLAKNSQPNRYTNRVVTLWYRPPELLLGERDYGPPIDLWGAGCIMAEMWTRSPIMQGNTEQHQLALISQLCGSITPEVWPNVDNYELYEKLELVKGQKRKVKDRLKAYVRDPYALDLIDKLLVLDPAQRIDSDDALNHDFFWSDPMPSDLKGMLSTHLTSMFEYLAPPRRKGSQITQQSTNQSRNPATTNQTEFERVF
T1 sequence (O60563 whole entry partner): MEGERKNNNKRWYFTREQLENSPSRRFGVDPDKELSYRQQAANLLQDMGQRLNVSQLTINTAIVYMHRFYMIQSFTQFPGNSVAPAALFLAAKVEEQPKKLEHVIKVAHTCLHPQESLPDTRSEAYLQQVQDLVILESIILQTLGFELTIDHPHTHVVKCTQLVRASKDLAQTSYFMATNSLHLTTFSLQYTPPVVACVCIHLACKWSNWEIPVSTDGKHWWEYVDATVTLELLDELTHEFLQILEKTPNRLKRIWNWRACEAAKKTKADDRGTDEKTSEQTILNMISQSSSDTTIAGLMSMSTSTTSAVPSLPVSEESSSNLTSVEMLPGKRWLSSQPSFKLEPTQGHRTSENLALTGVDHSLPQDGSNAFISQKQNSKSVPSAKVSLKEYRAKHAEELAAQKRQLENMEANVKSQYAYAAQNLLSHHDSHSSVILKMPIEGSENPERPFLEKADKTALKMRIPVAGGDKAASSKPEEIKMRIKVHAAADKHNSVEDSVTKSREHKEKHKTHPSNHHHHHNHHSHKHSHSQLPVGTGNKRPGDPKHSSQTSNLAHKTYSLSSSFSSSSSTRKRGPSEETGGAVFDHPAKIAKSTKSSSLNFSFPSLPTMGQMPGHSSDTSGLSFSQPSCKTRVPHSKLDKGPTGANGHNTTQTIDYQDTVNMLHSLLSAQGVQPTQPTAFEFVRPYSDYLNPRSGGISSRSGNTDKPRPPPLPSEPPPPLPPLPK

On to `Brc1cnn2c(NCc3nc4ccccc4[nH]3)nc(N3C[C@@H]4C[C@H]3CN4)nc12` [Example 270, N-[(1H-benzimidazol-2-yl)methyl]-8-bromo-2-[(1S,4S)-2,5-diazabicyclo[2.2.1]heptan-2-yl]pyrazolo[1,5-a][1,3,5]triazin-4-amine], for which the IC50 at CDK9/CycT1 was over 20000 nM. Besides, the DC50 in test [1] was 0.19 nM.
The corresponding values for `CC1(N)CCN(c2nc(NCc3nc4ccccc4[nH]3)n3ncc(Br)c3n2)CC1` [Example 290, 2-(4-amino-4-methylpiperidin-1-yl)-N-[(1H-benzimidazol-2-yl)methyl]-8-bromopyrazolo[1,5-a][1,3,5]triazin-4-amine] are over 20000 nM and 8.58 nM.
With `CN1CCN(c2nc(NCc3nc4cc(Cl)ccc4[nH]3)n3ncc(C(F)(F)F)c3n2)CC1` [Example 298, N-[(5-chloro-1H-benzimidazol-2-yl)methyl]-2-(4-methylpiperazin-1-yl)-8-(trifluoromethyl)pyrazolo[1,5-a][1,3,5]triazin-4-amine], the IC50 on CDK9/CycT1 was over 20000 nM. Further, in test [1], the DC50 was 1.44 nM.
Take `c1ccc2[nH]c(CNc3nc(N4CCOCC4)nc4c(C5CCCC5)cnn34)nc2c1` [Example 244, N-[(1H-benzimidazol-2-yl)methyl]-8-cyclopentyl-2-(morpholin-4-yl)pyrazolo[1,5-a][1,3,5]triazin-4-amine]: at CDK9/CycT1, the IC50 was over 20000 nM. The DC50 in test [1] was determined as 15.6 nM.
In the case of `CN1CCN(c2nc(NCc3nc4ccccc4[nH]3)n3ncc(C4CC4)c3n2)CC1` [Example 246, N-[(1H-benzimidazol-2-yl)methyl]-8-cyclopropyl-2-(4-methylpiperazin-1-yl)pyrazolo[1,5-a][1,3,5]triazin-4-amine], at CDK9/CycT1, the IC50 was over 20000 nM. In addition, the DC50 in test [1] was found to be 1.02 nM.
For `Fc1ccc2[nH]c(CNc3nc(N4CCOCC4)nc4c(C5CC5(F)F)cnn34)nc2c1` (racemic) [Example 286, 8-[(1RS)-2,2-difluorocyclopropyl]-N-[(5-fluoro-1H-benzimidazol-2-yl)methyl]-2-(morpholin-4-yl)pyrazolo[1,5-a][1,3,5]triazin-4-amine], on CDK9/CycT1, the IC50 is over 20000 nM. Also, in test [1], the DC50 is 1.89 nM.
For the compound `COc1ccc2[nH]c(CNc3nc(N4CCOCC4)nc4c(C(F)(F)F)cnn34)nc2c1` [Example 257, N-[(5-methoxy-1H-benzimidazol-2-yl)methyl]-2-(morpholin-4-yl)-8-(trifluoromethyl)pyrazolo[1,5-a][1,3,5]triazin-4-amine], the IC50 on CDK9/CycT1 is over 20000 nM. For the same compound, in test [1], the DC50 is 0.864 nM.
As to `Fc1ccc2[nH]c(CNc3nc(N4CCOCC4)nc4c(C5CC5(F)F)cnn34)nc2c1F` (stereo not drawn) [Example 278, N-[(4,5-difluoro-1H-benzimidazol-2-yl)methyl]-8-(2,2-difluorocyclopropyl)-2-(morpholin-4-yl)pyrazolo[1,5-a][1,3,5]triazin-4-amine], the IC50 on CDK9/CycT1 is over 20000 nM. For the same compound, in test [1], the DC50 was determined as 0.728 nM.
Regarding `Fc1cccc2[nH]c(CNc3nc(N4CCOCC4)nc4c(C(F)(F)F)cnn34)nc12` [Example 274, N-[(4-fluoro-1H-benzimidazol-2-yl)methyl]-2-(morpholin-4-yl)-8-(trifluoromethyl)pyrazolo[1,5-a][1,3,5]triazin-4-amine], at CDK9/CycT1, the IC50 is over 20000 nM. The DC50 in test [1] amounted to 3.21 nM.
For `Fc1ccc2[nH]c(CNc3nc(N4CCOCC4)nc4c(C5CC5(F)F)cnn34)nc2c1` (single isomer, unassigned) [Example 314, 8-[(1R or S)-2,2-difluorocyclopropyl]-N-[(5-fluoro-1H-benzimidazol-2-yl)methyl]-2-(morpholin-4-yl)pyrazolo[1,5-a][1,3,5]triazin-4-amine], at CDK9/CycT1, the IC50 was over 20000 nM. For the same compound, in test [1], the DC50 worked out at 1.11 nM.
The corresponding values for `C[C@@]1(O)CCN(c2nc(NCc3nc4ccccc4[nH]3)n3ncc(Br)c3n2)C1` (single isomer, unassigned) [Example 281, (3R or S)-1-(4-{[(1H-benzimidazol-2-yl)methyl]amino}-8-bromopyrazolo[1,5-a][1,3,5]triazin-2-yl)-3-methylpyrrolidin-3-ol] are over 20000 nM and 20.8 nM.
As to `N[C@@H]1[C@@H]2C[C@H]1CN(c1nc(NCc3nc4ccccc4[nH]3)n3ncc(Br)c3n1)C2` [Example 289, 2-[(1R,5S,6s)-6-amino-3-azabicyclo[3.1.1]heptan-3-yl]-N-[(1H-benzimidazol-2-yl)methyl]-8-bromopyrazolo[1,5-a][1,3,5]triazin-4-amine], the IC50 at CDK9/CycT1 was over 20000 nM. Further, the DC50 in test [1] amounted to 1.76 nM.
For the compound `Fc1ccc2[nH]c(CNc3nc(N4CC5CCC(C4)N5)nc4c(C(F)(F)F)cnn34)nc2c1F` [Example 310, 2-(3,8-diazabicyclo[3.2.1]octan-3-yl)-N-[(4,5-difluoro-1H-benzimidazol-2-yl)methyl]-8-(trifluoromethyl)pyrazolo[1,5-a][1,3,5]triazin-4-amine], the IC50 on CDK9/CycT1 is 8490 nM. In addition, in test [1], the DC50 is 0.29 nM.
Regarding `N[C@@H]1CCN(c2nc(NCc3nc4ccccc4[nH]3)n3ncc(Br)c3n2)C1` [Example 250, 2-[(3R)-3-aminopyrrolidin-1-yl]-N-[(1H-benzimidazol-2-yl)methyl]-8-bromopyrazolo[1,5-a][1,3,5]triazin-4-amine], the IC50 on CDK9/CycT1 was over 20000 nM. Besides, in test [1], the DC50 was 0.407 nM.
Take `c1ccc2[nH]c(CNc3nc(N4C[C@@H]5C[C@H]4CO5)nc4c(C5CC5)cnn34)nc2c1` [Example 254, N-[(1H-benzimidazol-2-yl)methyl]-8-cyclopropyl-2-[(1S,4S)-2-oxa-5-azabicyclo[2.2.1]heptan-5-yl]pyrazolo[1,5-a][1,3,5]triazin-4-amine]: on CDK9/CycT1, the IC50 is over 20000 nM. In addition, the DC50 in test [1] amounted to 4.17 nM.
The corresponding values for `CCNC1CCN(c2nc(NCc3nc4ccccc4[nH]3)n3ncc(Br)c3n2)CC1` [Example 300] are over 20000 nM and 1.03 nM.
On to `CN[C@@H]1CCN(c2nc(NCc3nc4ccccc4[nH]3)n3ncc(Br)c3n2)C1` [Example 253, N-[(1H-benzimidazol-2-yl)methyl]-8-bromo-2-[(3R)-3-(methylamino)pyrrolidin-1-yl]pyrazolo[1,5-a][1,3,5]triazin-4-amine], for which the IC50 on CDK9/CycT1 is over 20000 nM. Moreover, the DC50 in test [1] was 1.82 nM.
The like results for `FC1(F)CC1c1cnn2c(NCc3nc4ccccc4[nH]3)nc(N3CCOCC3)nc12` (stereo not drawn) [Example 279, N-[(1H-benzimidazol-2-yl)methyl]-8-(2,2-difluorocyclopropyl)-2-(morpholin-4-yl)pyrazolo[1,5-a][1,3,5]triazin-4-amine] were, in that order, over 20000 nM and 3.78 nM.

These data come from patent US20230117034A1, “PYRAZOLOTRIAZINES” (Bayer Aktiengesellschaft, priority 2019, published 2023).
